Here are results for eight compounds from PMC9841593 (ACS Medicinal Chemistry Letters, 2022).

In the assay the target is influenza PAN endonuclease (Influenza A virus, UniProt C3W5S0, DEL52-64/INS51G). Format: biochemical, influenza A/California/04/2009(H1N1).

Regarding `NC(=O)c1[nH]c(Br)cc(=O)c1O` [Compound 3], the “inhibition of PAN (in words)” value is listed as “little difference in activity when compared with compounds 1 or 2”.
As for `O=c1cc(Br)[nH]c(-c2nnn[nH]2)c1O` [Compound 4], the entry is “activity comparable to that of the parent structure”; as for `CONC(=O)c1[nH]c(Br)cc(=O)c1O` [Compound 5], “moderate inhibition”; as for `O=c1[nH]c(-c2[nH]c(Br)cc(=O)c2O)no1` [Compound 7], “most potent IC50 value of the evaluated compounds”.
`Cc1nc(-c2[nH]c(Br)cc(=O)c2O)no1` [Compound 8]: the “inhibition of PAN (in words)” value is reported as “good inhibition”.
With `N#Cc1[nH]c(Br)cc(=O)c1O` [Compound 9], the “inhibition of PAN (in words)” value is “relatively poor inhibition”.
As for `O=c1cc(Br)[nH]c(C2=NCCN2)c1O` [Compound 10], the entry is “markedly poorer inhibition than the parent MBI”; as for `O=c1cc(Br)[nH]c(C2=NCCO2)c1O` [Compound 11], “markedly poorer inhibition than the parent MBI”.
